{"source": "PubChem BioAssay AID2060502", "about": "(Molecular Pharmacology Branch, DTP, NCI, 2025)", "system": "885724-159-R-J1-PDC complex spheroid viability", "test": "Anticancer human tumor 885724-159-R-J1-PDC patient-derived pancreatic adenocarcinoma cell line growth inhibition [GQUAD]", "conditions": "for IC50: curve of first compound; for viability, T/C: stronger effect = lower value", "outline": "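Tumor cells were grown as complex spheroids with HUVEC endothelial cells and mesenchymal stem cells as stroma. G-quadruplex stabilizers were combined with targeted agents over half-log dilutions from near the clinical Cmax, or from 10 microM.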", "key": {"[1]": {"conditions": "second compound 0.0316 µM, first compound 0.0316 µM"}, "[2]": {"conditions": "second compound 0.0316 µM, first compound 0.316 µM"}, "[3]": {"conditions": "second compound 0.1 µM, first compound 0.0316 µM"}, "[4]": {"conditions": "second compound 0.1 µM, first compound 0.316 µM"}, "[5]": {"conditions": "second compound 0.316 µM, first compound 0.0316 µM"}, "[6]": {"conditions": "second compound 0.316 µM, first compound 0.316 µM"}, "[7]": {"conditions": "second compound 1 µM, first compound 0.0316 µM"}, "[8]": {"conditions": "second compound 1 µM, first compound 0.316 µM"}, "[9]": {"conditions": "second compound 3.16 µM, first compound 0.0316 µM"}, "[10]": {"conditions": "second compound 3.16 µM, first compound 0.316 µM"}, "[11]": {"conditions": "second compound 10 µM, first compound 0.0316 µM"}, "[12]": {"conditions": "second compound 10 µM, first compound 0.316 µM"}}, "data": [{"compound": "CC(C)n1c(=O)n(C)c2cnc3cc(F)c(-c4ccc(OCCCN5CCCCC5)nc4)cc3c21", "note": "+ Cc1[nH]c2ccc(F)cc2c1-c1nc2c3cccnc3c3ncccc3c2[nH]1;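 also: spheroids exposed to agents for seven days before readout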;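 as to viability, T/C: percent of vehicle control viability where 100% = DMSO wells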", "values": [{"measurement": "IC50", "setting": "second compound 0.0316 µM", "value": "> 10000", "unit": "nM"}, {"measurement": "IC50", "setting": "second compound 0.1 µM", "value": "> 10000", "unit": "nM"}, {"measurement": "IC50", "setting": "second compound 0.316 µM", "value": "> 10000", "unit": "nM"}, {"measurement": "IC50", "setting": "second compound 1 µM", "value": "> 10000", "unit": "nM"}, {"measurement": "IC50", "setting": "second compound 3.16 µM", "value": 133, "unit": "nM"}, {"measurement": "IC50", "setting": "second compound 10 µM", "value": "> 10000", "unit": "nM"}, {"measurement": "viability, T/C", "setting": "[1]", "value": 107, "unit": "%"}, {"measurement": "viability, T/C", "setting": "second compound 0.0316 µM, first compound 0.1 µM", "value": 95.2, "unit": "%"}, {"measurement": "viability, T/C", "setting": "[2]", "value": 98.2, "unit": "%"}, {"measurement": "viability, T/C", "setting": "second compound 0.0316 µM, first compound 1 µM", "value": 92.9, "unit": "%"}, {"measurement": "viability, T/C", "setting": "second compound 0.0316 µM, first compound 3.16 µM", "value": 84.6, "unit": "%"}, {"measurement": "viability, T/C", "setting": "second compound 0.0316 µM, first compound 10 µM", "value": 83.2, "unit": "%"}, {"measurement": "viability, T/C", "setting": "[3]", "value": 100, "unit": "%"}, {"measurement": "viability, T/C", "setting": "second compound 0.1 µM, first compound 0.1 µM", "value": 99.2, "unit": "%"}, {"measurement": "viability, T/C", "setting": "[4]", "value": 100, "unit": "%"}, {"measurement": "viability, T/C", "setting": "second compound 0.1 µM, first compound 1 µM", "value": 91.3, "unit": "%"}, {"measurement": "viability, T/C", "setting": "second compound 0.1 µM, first compound 3.16 µM", "value": 94.5, "unit": "%"}, {"measurement": "viability, T/C", "setting": "second compound 0.1 µM, first compound 10 µM", "value": 78.9, "unit": "%"}, {"measurement": "viability, T/C", "setting": "[5]", "value": 93.4, "unit": "%"}, {"measurement": "viability, T/C", "setting": "second compound 0.316 µM, first compound 0.1 µM", "value": 102, "unit": "%"}, {"measurement": "viability, T/C", "setting": "[6]", "value": 92.5, "unit": "%"}, {"measurement": "viability, T/C", "setting": "second compound 0.316 µM, first compound 1 µM", "value": 79.8, "unit": "%"}, {"measurement": "viability, T/C", "setting": "second compound 0.316 µM, first compound 3.16 µM", "value": 81.6, "unit": "%"}, {"measurement": "viability, T/C", "setting": "second compound 0.316 µM, first compound 10 µM", "value": 74.2, "unit": "%"}, {"measurement": "viability, T/C", "setting": "[7]", "value": 74.3, "unit": "%"}, {"measurement": "viability, T/C", "setting": "second compound 1 µM, first compound 0.1 µM", "value": 69.2, "unit": "%"}, {"measurement": "viability, T/C", "setting": "[8]", "value": 75, "unit": "%"}, {"measurement": "viability, T/C", "setting": "second compound 1 µM, first compound 1 µM", "value": 70, "unit": "%"}, {"measurement": "viability, T/C", "setting": "second compound 1 µM, first compound 3.16 µM", "value": 68.3, "unit": "%"}, {"measurement": "viability, T/C", "setting": "second compound 1 µM, first compound 10 µM", "value": 59.5, "unit": "%"}, {"measurement": "viability, T/C", "setting": "[9]", "value": 54.7, "unit": "%"}, {"measurement": "viability, T/C", "setting": "second compound 3.16 µM, first compound 0.1 µM", "value": 43.4, "unit": "%"}, {"measurement": "viability, T/C", "setting": "[10]", "value": 53.8, "unit": "%"}, {"measurement": "viability, T/C", "setting": "second compound 3.16 µM, first compound 1 µM", "value": 42.9, "unit": "%"}, {"measurement": "viability, T/C", "setting": "second compound 3.16 µM, first compound 3.16 µM", "value": 38.5, "unit": "%"}, {"measurement": "viability, T/C", "setting": "second compound 3.16 µM, first compound 10 µM", "value": 25.3, "unit": "%"}, {"measurement": "viability, T/C", "setting": "[11]", "value": 69.9, "unit": "%"}, {"measurement": "viability, T/C", "setting": "second compound 10 µM, first compound 0.1 µM", "value": 71.6, "unit": "%"}, {"measurement": "viability, T/C", "setting": "[12]", "value": 79.8, "unit": "%"}, {"measurement": "viability, T/C", "setting": "second compound 10 µM, first compound 1 µM", "value": 76.1, "unit": "%"}, {"measurement": "viability, T/C", "setting": "second compound 10 µM, first compound 3.16 µM", "value": 72.4, "unit": "%"}, {"measurement": "viability, T/C", "setting": "second compound 10 µM, first compound 10 µM", "value": 63.2, "unit": "%"}]}, {"compound": "Cn1ncnc1[C@H]1c2n[nH]c(=O)c3cc(F)cc(c23)N[C@@H]1c1ccc(F)cc1", "note": "+ CN(C)c1ccc(Nc2c3ccc(NC(=O)CCN4CCCC4)cc3nc3cc(NC(=O)CCN4CCCC4)ccc23)cc1", "values": [{"measurement": "IC50", "setting": "second compound 0.0316 µM", "value": "> 316", "unit": "nM"}, {"measurement": "IC50", "setting": "second compound 0.1 µM", "value": "> 316", "unit": "nM"}, {"measurement": "IC50", "setting": "second compound 0.316 µM", "value": "> 316", "unit": "nM"}, {"measurement": "IC50", "setting": "second compound 1 µM", "value": "> 316", "unit": "nM"}, {"measurement": "IC50", "setting": "second compound 3.16 µM", "value": "> 316", "unit": "nM"}, {"measurement": "IC50", "setting": "second compound 10 µM", "value": "> 316", "unit": "nM"}, {"measurement": "viability, T/C", "setting": "second compound 0.0316 µM, first compound 0.000999 µM", "value": 99, "unit": "%"}, {"measurement": "viability, T/C", "setting": "second compound 0.0316 µM, first compound 0.00316 µM", "value": 96.7, "unit": "%"}, {"measurement": "viability, T/C", "setting": "second compound 0.0316 µM, first compound 0.00999 µM", "value": 98.9, "unit": "%"}, {"measurement": "viability, T/C", "setting": "[1]", "value": 107, "unit": "%"}, {"measurement": "viability, T/C", "setting": "second compound 0.0316 µM, first compound 0.0999 µM", "value": 78.5, "unit": "%"}, {"measurement": "viability, T/C", "setting": "[2]", "value": 84.9, "unit": "%"}, {"measurement": "viability, T/C", "setting": "second compound 0.1 µM, first compound 0.000999 µM", "value": 101, "unit": "%"}, {"measurement": "viability, T/C", "setting": "second compound 0.1 µM, first compound 0.00316 µM", "value": 112, "unit": "%"}, {"measurement": "viability, T/C", "setting": "second compound 0.1 µM, first compound 0.00999 µM", "value": 112, "unit": "%"}, {"measurement": "viability, T/C", "setting": "[3]", "value": 93.1, "unit": "%"}, {"measurement": "viability, T/C", "setting": "second compound 0.1 µM, first compound 0.0999 µM", "value": 96, "unit": "%"}, {"measurement": "viability, T/C", "setting": "[4]", "value": 88.3, "unit": "%"}, {"measurement": "viability, T/C", "setting": "second compound 0.316 µM, first compound 0.000999 µM", "value": 103, "unit": "%"}, {"measurement": "viability, T/C", "setting": "second compound 0.316 µM, first compound 0.00316 µM", "value": 96.2, "unit": "%"}, {"measurement": "viability, T/C", "setting": "second compound 0.316 µM, first compound 0.00999 µM", "value": 97.3, "unit": "%"}, {"measurement": "viability, T/C", "setting": "[5]", "value": 86, "unit": "%"}, {"measurement": "viability, T/C", "setting": "second compound 0.316 µM, first compound 0.0999 µM", "value": 97.2, "unit": "%"}, {"measurement": "viability, T/C", "setting": "[6]", "value": 82.1, "unit": "%"}, {"measurement": "viability, T/C", "setting": "second compound 1 µM, first compound 0.000999 µM", "value": 101, "unit": "%"}, {"measurement": "viability, T/C", "setting": "second compound 1 µM, first compound 0.00316 µM", "value": 75.7, "unit": "%"}, {"measurement": "viability, T/C", "setting": "second compound 1 µM, first compound 0.00999 µM", "value": 85.8, "unit": "%"}, {"measurement": "viability, T/C", "setting": "[7]", "value": 73.4, "unit": "%"}, {"measurement": "viability, T/C", "setting": "second compound 1 µM, first compound 0.0999 µM", "value": 76.7, "unit": "%"}, {"measurement": "viability, T/C", "setting": "[8]", "value": 76.2, "unit": "%"}, {"measurement": "viability, T/C", "setting": "second compound 3.16 µM, first compound 0.000999 µM", "value": 86.4, "unit": "%"}, {"measurement": "viability, T/C", "setting": "second compound 3.16 µM, first compound 0.00316 µM", "value": 79, "unit": "%"}, {"measurement": "viability, T/C", "setting": "second compound 3.16 µM, first compound 0.00999 µM", "value": 76, "unit": "%"}, {"measurement": "viability, T/C", "setting": "[9]", "value": 76.5, "unit": "%"}, {"measurement": "viability, T/C", "setting": "second compound 3.16 µM, first compound 0.0999 µM", "value": 81.6, "unit": "%"}, {"measurement": "viability, T/C", "setting": "[10]", "value": 75.6, "unit": "%"}, {"measurement": "viability, T/C", "setting": "second compound 10 µM, first compound 0.000999 µM", "value": 67.3, "unit": "%"}, {"measurement": "viability, T/C", "setting": "second compound 10 µM, first compound 0.00316 µM", "value": 85.9, "unit": "%"}, {"measurement": "viability, T/C", "setting": "second compound 10 µM, first compound 0.00999 µM", "value": 78, "unit": "%"}, {"measurement": "viability, T/C", "setting": "[11]", "value": 74.2, "unit": "%"}, {"measurement": "viability, T/C", "setting": "second compound 10 µM, first compound 0.0999 µM", "value": 75.8, "unit": "%"}, {"measurement": "viability, T/C", "setting": "[12]", "value": 77, "unit": "%"}]}]}
